Laboratory results reported in BindingDB's records for doi:10.1021/jm070654j (University of Zurich, 2008).
pIC50: −log10 of the molar value.

Target: Cyclin-dependent kinase 1 (Homo sapiens, UniProt P06493)
Test: Inhibition of CDK1

Chain of Cyclin-dependent kinase 1 (P06493 whole entry): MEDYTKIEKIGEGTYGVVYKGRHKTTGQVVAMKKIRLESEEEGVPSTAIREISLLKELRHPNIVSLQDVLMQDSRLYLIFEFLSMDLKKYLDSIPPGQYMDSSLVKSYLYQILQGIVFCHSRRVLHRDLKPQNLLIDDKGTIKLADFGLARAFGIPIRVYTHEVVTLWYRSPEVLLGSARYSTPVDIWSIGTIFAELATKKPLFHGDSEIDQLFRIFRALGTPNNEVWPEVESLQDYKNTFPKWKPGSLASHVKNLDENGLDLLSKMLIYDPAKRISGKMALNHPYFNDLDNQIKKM

Row | pIC50 | SMILES
1 | < 6.00 | Cc1cc(C)c2c(c1)C(C=Nc1ccc(S(N)(=O)=O)cc1)C(=O)N2 (stereo not drawn)
2 | < 6.00 | Cc1cccc2c1NC(=O)C2C=Nc1ccc(S(N)(=O)=O)cc1 (stereo not drawn)
3 | < 6.00 | Cc1cc(Cl)cc2c1NC(=O)C2C=Nc1ccc(S(N)(=O)=O)cc1 (stereo not drawn)
